{
  "source": "patent US4749790A",
  "about": "“Process for preparing H2 receptor antagonist ascorbate compounds” (priority 1985, dated 1988)",
  "key": {"[1]": {"test": "pH of aqueous solution", "type": "physicochemical"}, "[2]": {"test_system": "gastric carcinoma", "details": "in vivo; cited from earlier work"}, "[3]": {"test_system": "desoxyribonucleic acid (DNA)", "details": "cimetidine 250 mg/kg with nitrite 80 mg/kg; cited from earlier work"}, "[4]": {"test": "Nitrosation in gastric juice or simulated gastric juice (Griess reagent, TLC)", "details": "for NC (nitrosocimetidine) found: 75 ml simulated gastric juice, 37° C., pH 1.0-3.5, ascorbate-nitrite 6:1 molar ratio"}, "[5]": {"details": "70° C.; 20 min (10% hydrochloric acid), 180 min (ascorbic acid); cited from earlier work"}, "[6]": {"details": "wide pH range; cited from earlier work"}, "[7]": {"test": "Stability to ambient environment (air, light, oxidation)"}, "[8]": {"test": "Solubility in water"}, "[9]": {"test_system": "duodenal ulcer"}, "[10]": {"test_system": "rats", "details": "eight days treatment, 500 mg/kg; cited from earlier work"}},
  "note": "Like-named read-outs stand apart in the source and are kept apart here.",
  "data": [
    {"smiles": "CNC(=C[N+](=O)[O-])NCCSCc1ccc(CN(C)C)o1", "note": "[Example 8, Ranitidine L-ascorbate]", "values": [
      {"measurement": "pH of aqueous solution", "setting": "[1]", "result": 3.5}
    ]},
    {"smiles": "CN/C(=N/CCSCc1nc[nH]c1C)NC#N", "note": "[cimetidine, N\"-cyano-N'-methyl-N-2-(5-methyl-1H-imidazol-4-yl)methylthioethylguanidine]", "values": [
      {"measurement": "gastric carcinoma related with treatment", "setting": "[2]", "result": "appearance of a gastric carcinoma"},
      {"measurement": "evidence of DNA damage", "setting": "[3]", "result": "no evidence of desoxyribonucleic acid (DNA) damage"},
      {"measurement": "NCD (nitroso compound derivatives) determined", "setting": "[4]; 400 mg cimetidine, 36.4 mg sodium nitrite, 75 ml gastric juice, pH 1.5, 37° C., 60 min", "result": 100, "unit": "ppm"}
    ]},
    {"smiles": "O=C1O[C@H]([C@@H](O)CO)C(O)=C1O", "note": "[ascorbic acid, 3-oxo-L-gulofuranelactone (enolic form)]", "values": [
      {"measurement": "denitrosation", "setting": "[5]", "result": "innefective"},
      {"measurement": "inhibition of N-nitroso compound formation", "setting": "[6]", "result": "most effective over a wide pH range"}
    ]},
    {"smiles": "Nc1n[s+]([O-])nc1NCCCOc1cccc(CN2CCCCC2)c1", "note": "[Example 14, CM.5 antagonist L-ascorbate]", "values": [
      {"measurement": "stability to air, light, ambient conditions", "setting": "[7]", "result": "has to be preserved from the air and light"},
      {"measurement": "water solubility (in words)", "setting": "[8]", "result": "water soluble"}
    ]},
    {"smiles": "Cc1ccc(Cc2c[nH]c(NCCSCc3ccc(CN(C)C)o3)nc2=O)cn1", "note": "[Example 15, CM.10 antagonist L-ascorbate]", "values": [
      {"measurement": "water solubility (in words)", "setting": "[8]", "result": "water soluble"}
    ]},
    {"smiles": "CNC(=C[N+](=O)[O-])NCCSCc1ccc(CN(C)C)o1", "note": "[Example 18, Ranitidine diascorbate]", "values": [
      {"measurement": "TLC spot of nitroso derivative at Rf = 0.83", "setting": "[4]; gastric juice pH 1.5, 318 mg diascorbate, 18.2 mg sodium nitrite, 60 min", "result": "did not appear"}
    ]},
    {"smiles": "CNC(=C[N+](=O)[O-])NCCSCc1ccc(CN(C)C)o1", "note": "[ranitidine, N-(2-(((5-((dimethylamino)methyl)-2-furanyl)methyl)thio)ethyl)N'-methyl-2-nitro-1,1-ethenediamine, reference compound]", "values": [
      {"measurement": "formation of nitroso compounds / nitrosatability", "setting": "[4]; gastric juice conditions", "result": "causes the formation of nitroso derivatives and nitrosated degradation products"}
    ]},
    {"smiles": "CN/C(=N/CCSCc1nc[nH]c1C)NC#N", "note": "[Example 16, Cimetidine diascorbate]", "values": [
      {"measurement": "stability to air, light, ambient conditions", "setting": "[7]", "result": "has to be preserved from the air and light"},
      {"measurement": "NC (nitrosocimetidine) found", "setting": "[4]", "result": 0.13, "unit": "ppm"},
      {"measurement": "NC produced in cases of hyperchlorhydria", "setting": "[4]; abnormally high nitrite concentrations", "result": 0.08, "unit": "ppm"}
    ]},
    {"smiles": "CNC(=NC#N)NCCSCc1nc[nH]c1C", "note": "[Example 1, Cimetidine L-ascorbate]", "values": [
      {"measurement": "outcome of relapse and improvement maintenance cases", "setting": "[9]; maintenance doses 680 mg ascorbate or 860 mg diascorbate, one year continuously, two years with breaks", "result": "normality being achieved"},
      {"measurement": "outcome in males with duodenal ulcer diagnosis", "setting": "[9]; males aged 55-60 years, usual periods of cimetidine medication", "result": "back to normal"},
      {"measurement": "NC (nitrosocimetidine) found", "setting": "[4]; listed as cimetidine ascorbate", "result": 0.18, "unit": "ppm"},
      {"measurement": "pH of aqueous solution", "setting": "[1]", "result": 4.5},
      {"measurement": "water solubility (in words)", "setting": "[8]", "result": "soluble in water"}
    ]},
    {"smiles": "Cc1[nH]cnc1CSCCN=C(NC#N)N(C)N=O", "note": "[NC, nitrosocimetidine]", "values": [
      {"measurement": "toxic effect", "setting": "[10]", "result": "no toxic effect"}
    ]},
    {"smiles": "NC(N)=Nc1nc(CSCCC(N)=NS(N)(=O)=O)cs1", "note": "[Example 12, Famotidine L-ascorbate]", "values": [
      {"measurement": "stability to air, light, ambient conditions", "setting": "[7]", "result": "has to be preserved from the air and light"},
      {"measurement": "pH of aqueous solution", "setting": "[1]", "result": 5.9},
      {"measurement": "pH of aqueous solution", "setting": "[1]; listed as famotidine ascorbate", "result": 5.6},
      {"measurement": "solubility", "setting": "[8]; water, Solubility in water, room temperature where printed", "result": 75, "unit": "mg/mL"}
    ]},
    {"smiles": "Cl", "note": "[hydrochloric acid]", "values": [
      {"measurement": "denitrosation", "setting": "[5]", "result": "innefective"}
    ]}
  ]
}
